# Measured values reported in paper PMC6270837, “Preparation and Biological Properties of Ring-Substituted Naphthalene-1-Carboxanilides” (Molecules, 2014).
# Entries after “also recorded” stand apart in the source; their conditions may differ.
# System: human monocytic leukemia THP-1 cell line
# Experiment: In vitro cytotoxicity assay (LDH)
# Method: Human monocytic leukemia THP-1 cells were obtained from the European Collection of Cell Cultures (ECACC, Salisbury, UK; Methods of characterization: DNA Fingerprinting (Multilocus probes) and isoenzyme analysis). These cells were routinely cultured in RPMI 1640 (Lonza, Verviers, Belgium) medium supplemented with 10% fetal bovine serum (FBS, Sigma-Aldrich, St. Louis, MO, USA), 2% L-glutamine, 1% penicillin and streptomycin (Lonza) at 37 °C with 5% CO2. Cells were passaged at approximately one-week intervals. Cells were routinely tested for the absence of mycoplasma (Hoechst 33258 staining method). The tested compounds were dissolved in DMSO (Sigma-Aldrich) and added in five increasing concentrations to the cell suspension in the culture medium. The maximum concentration of DMSO in the assays never exceeded 0.1%. Subsequently, the cells were incubated for 24 h at 37 °C with 5% CO2 to various compound concentrations ranging from […] in RPMI 1640 medium. Cell toxicity was determined using a Cytotoxicity Detection Kit^PLUS Lactate dehydrogenase (LDH) assay kit (Roche Diagnostics, Mannheim, Germany) according to the manufacturer’s instructions, as described previously. For LDH assays, cells were seeded into 96-well plates (5 × 10^4 cells/well in 100 μL culture medium) in triplicate in serum-free RPMI 1640 medium, and measurements at 492 nm wavelength (Synergy 2 Multi-Mode Microplate Reader, BioTek, Winooski, VT, USA) were taken 24 h after the treatment with tested compounds. The median lethal dose values, LD50, were deduced through the production of a dose-response curve. All data were evaluated using GraphPad Prism 5.00 software (GraphPad Software, San Diego, CA, USA).
# LDH Test Principle: The LDH activity is determined by a coupled enzymatic reaction, whereby the tetrazolium salt INT is reduced to formazan. An increase in the amount of dead or plasma membrane damaged cells results in an increase of LDH enzyme activity in the culture supernatant. This increase in the amount of enzyme activity in the supernatant directly correlates to the amount of formazan formed during a limited time period.
smiles,measurement,setting,value
"Cc1ccc(NC(=O)c2cccc3ccccc23)cc1 [Compound 3c, N-(4-Methylphenyl)naphthalene-1-carboxamide]",LD50,"human, 24 h",>30 µmol/L
same,lethal effect / toxicity on THP-1 cells,treatment with 30 μmol/L,did not lead to significant lethal effect; also recorded: insignificant toxicity
